In patent US20110173718A1, “HERBICIDE TOLERANT PLANTS” (SYNGENTA CROP PROTECTION, INC., priority 2008, published 2011):

Key:
Chlamydomonas HST = target: T1, Chlamydomonas HST (Chlamydomonas reinhardtii, UniProt A1JHN0); assay: HST assay (TLC, MFBQ formed), recombinant Chlamydomonas HST in E. coli membranes; assay type: biochemical; conditions: 25 ppm, TLC, estimated amount of MFBQ formed, relative to controls; for inhibition at 25 ppm: read-out: Chlamydomonas. HST % I at 25 ppm
T1 construct: GST (N); made in house; host or cells: E. coli (BL21A1 / BL21DE3), membrane fraction
T1 sequence (A1JHN0 51-370): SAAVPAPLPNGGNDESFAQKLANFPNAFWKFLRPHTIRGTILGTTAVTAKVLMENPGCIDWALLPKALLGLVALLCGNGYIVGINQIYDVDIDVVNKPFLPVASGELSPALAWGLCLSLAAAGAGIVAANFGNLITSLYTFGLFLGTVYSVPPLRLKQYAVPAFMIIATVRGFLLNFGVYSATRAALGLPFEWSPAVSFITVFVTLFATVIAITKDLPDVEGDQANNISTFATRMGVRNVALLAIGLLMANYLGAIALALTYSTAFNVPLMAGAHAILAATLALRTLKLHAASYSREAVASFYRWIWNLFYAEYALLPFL
Description: Alternatively, Arabidopsis and Chlamydomonas mature HST coding sequences are cloned as GST N-terminal fusion enzymes and expressed in E. coli.
E. coli. BL21A1 cells expressing mature Arabidopsis or Chlamydonionas HST as a GST N-terminal fusion proteins are grown, harvested, broken and membrane fractions expressing HST produced.
For example, 1 ng of recombinant DNA is used to transform BL21DE3 cells to obtain a plateful of individual colonies. One of these colonies is picked and used to inoculate an overnight culture of 100 ml of Luria Broth (LB) supplemented with 50 ug/ml of kanamycin at final concentration, grown at 37° C. with shaking at 220 rpm. Next morning, 10 mls of the overnight culture is used to inoculate 11 of fresh sterile LB supplemented with 50 ug/ml of kanamycin at final concentration, grown at 37° C. with shaking at 220 rpm until the OD reached 0.6 at 600 nm, induced with the addition of 0.1 mM IPTG and left to induce at 15° C. overnight. The cells are harvested by centrifugation at 4600 rpm for 10 min at 4° C. and the pellet stored at −80° C. […] E. coli cell pellet is then resuspended in 25 ml of 50 mM Tris, pH 7.5 supplemented with Roche EDTA-free protease inhibitor tablet (one tablet in 200 mls of buffer). 10 ml of cells are lysed by sonication on ice. The resultant lysed cells are centrifuged at 3000 g for 10 min to pellet the cell nuclei/debris etc. 10 mls of supernatant is aspirated and centrifuged at 150,000 g for 60 min at 4° C. The pellet containing the membranes is resuspended in 2 ml of the above buffer. These samples are stored as 100 ul aliquots at −80° C., after being diluted with addition of glycerol to 50% v/v.
(§1) Prenyltransferase (HST) activities are measured by determining the prenylation rates of [U—^14C]homogentisate using farnesyl diphosphate (FDP) as prenyl donor. ^14C homogentisate is prepared from ^14C tyrosine using L amino acid oxidase and HPPD. For inhibitor testing, compounds are dissolved in dimethylsulfoxide (DMSO). DMSO added at up to 2% v/v has no effect on assays. Control assays contain DMSO at the same concentration as in inhibitor containing assays.
The recombinant Chlamydomonas HST expressed in E. coli membranes is assayed in standard reaction mixtures with 200 μM FDP and 100 μM ^14C-homogentisate (40 dpm/pmol) in 50 mM Tricine-NaOH pH 8.5, 20 mM MgCl2. Assays are started with the addition of enzyme and run for ˜20 min at 28° C.
Recombinant Arabidopsis and Rice HSTs are expressed in insect cells. Assays are run as for Chlamydomonas HST except that assay temperature is 27° C. Assays are stopped with 300 ul of solvent mix (1:2, Chloroform:Methanol) and 100 ul of 0.5% NaCl, agitated/mixed and spun at 13,000 rpm in a benchtop eppendorf centrifuge for 5 minutes. 80 ul of the lower phase extract is loaded onto a TLC plate (silica Gel 60, 20 cm×20 cm) FLA3000 system and run for 35 minutes in dichloromethane. The radioactivity is quantified using a Fuji Phosphoimager and band intensity integrated as quantitative measure of product amount. The bands corresponding to oxidised and reduced 2-methyl-6-farnesyl-1,4-benzoquinol (MFBQ) are identified and the total of the two (oxidised and reduced) band intensities is calculated in order to estimate the total amount of MFBQ product formation. Specific activities of 8 pmol MFBQ min^−1 mg^−1 protein (23 pmol) and 7 pmol MFBQ min^−1 mg^−1 protein (14 pmol) are, for example, estimated for the GST-fusion truncated Arabidopsis HST gene (SEQ ID # 3) expressed in membranes from insect cells 4 days and 5 days after transfection respectively. Similar results are noted from past literature on E. coli expressed Arabidopsis HST. Activity from the insect cell expressed GST-fusion truncated rice HST (SEQ ID# 4) is similar. Expression of the non-truncated HST coding sequences as GST fusions also gives HST activity. […]

[1] = tested on: HST in spinach chloroplast extract; assay: HST assay (TLC, MFBQ formed), spinach chloroplast extract; assay type: biochemical; conditions: 25 ppm; TLC, estimated amount of MFBQ formed, relative to controls
Description: HST enzyme preparations for assay are also prepared directly from fresh plant material. For example HST enzyme preparations are from spinach. In the first step intact spinach chloroplasts are prepared from two lots of 500 g of fresh baby spinach leaves (e.g from the salad section of the local supermarket). Prepacked spinach is usually already washed, but if buying loose leaves these must be rinsed in water before proceeding. Stalks, large leaves and mid-ribs are removed. Each 500 g lot of leaves is added to 1.5 l of ‘Grinding medium’ in a 2 L plastic beaker. Grinding medium is cold (4° C.) 50 mM Tricine/NaOH buffer at pH 7.1 containing 330 mM glucose, 2 mM sodium isoascorbate, 5 mM MgCl2 and 0.1% bovine serum albumen The beaker, kept at 4° C., is placed under a Polytron 6000 blender, fitted with a 1.5″cutting probe and the mixture blended in short bursts of 5-8 sec up to 8-10K rpm until all the leaves are macerated. The homogenate is filtered into a 5 L beaker (embedded in an ice bucket) through four layers of muslin, and two layers of 50μ mesh nylon cloth. The filtrate is transferred to 250 ml buckets of a Beckman GS-6 centrifuge and spun at […] (3020 rpm) for 2 min at 4° C. The supernatant is drained away and discarded to leave a sediment of chloroplasts. Chloroplasts are resuspended in a few ml of cold resuspension medium by gentle swirling and gentle use of a quill brush soaked in resuspension medium. Resuspension medium is 50 mM Hepes/KOH pH 7.8 containing 330 mM sorbitol, 2 mM EDTA, 5 mM KH2PO4, 2 mM MgCl2 and 0.1% bovine serum albumen at 4° C. The chloroplasts are resuspended in 5-10 ml of resuspension buffer, recentrifuged down and resuspended again in order to wash them. The chloroplasts are then once again centrifuged down and then broken by resuspension in about 5 ml of 50 mM Tricine-NaOH pH 7.8 to a protein concentration of about 40 mg/ml. The solution is stored frozen at −80° C. in aliquots. This resuspension is defrosted and used directly in HST activity assays. Alternatively, chloroplasts are prepared resuspended in 50 mM Tris/HCl buffer at pH 7.8 containing 330 mM sorbitol (alternative resuspension buffer) and layered on top of a percol gradient (comprising the same buffer containing 45% percol), spun down, the intact chloroplast fraction taken and washed 2 or 3 times in the alternative resuspension buffer and then spun down again, resuspended in breaking buffer (without sorbitol), flash frozen and stored in aliquots at −80° C.
as §1
Assays using spinach chloroplast extracts (100 μl final volume) contain up to 2 mg of chloroplast protein, 50 mM Tricine-NaOH pH 8.5, 50 mM MgCl2, 200 μM farnesyl diphosphate (FDP) and 26 μM ^14C-homogentisate (167 dpm/pmol). Assays are run for about an hour at 28° C. […] Lipophilic reactions products are extracted and analyzed essentially as described in the literature.
Using the above assays percentage inhibition of the amount of MFBQ formed at a range of doses of inhibitors relative to the control amount obtained with no inhibitor present is reported (Table 1). The better inhibitors give greater percentage inhibition at lower doses.

SMILES	Chlamydomonas. HST % I at 25 ppm (Chlamydomonas HST)	Spinach chloroplast extract % I at 25 ppm [1]	inhibition at 25 ppm (Chlamydomonas HST)
O=S1(=O)C(c2c(Cl)ccc(Cl)c2Cl)=C(O)c2nccnc2N1CC(F)F [Compound 3.4]	50%	40%	–
Oc1c(Cl)c(Cl)nc(Cl)c1Cl [Compound 1.2]	–	80%	70%
COc1nc(C)nc(NC(=O)NS(=O)(=O)c2ccccc2Cl)n1 [Chlorsulfuron, reference compound]	–	0%	0%
CCc1cc(CC)c(-c2c(O)c3nccnc3[nH]c2=O)c(CC)c1 [Compound 2.10]	50%	0%	–
Oc1c(F)c(F)nc(F)c1Br [Compound 1.3]	–	65%	55%
CN1c2nccnc2C(O)=C(c2ccc(Cl)cc2Cl)S1(=O)=O [Compound 3.2]	0%	15%	–
Oc1c(Br)c(F)nc(F)c1Br [Compound 1.4]	–	75%	65%
O=c1[nH]c2nccnc2c(O)c1-c1ccccc1OC(F)(F)F [Compound 2.12]	0%	0%	–
O=c1c(-c2c(Cl)cncc2Cl)c(O)c2nccnc2n1CC(F)F [Compound 5.1]	20%	10%	–
CCN1c2nccnc2C(O)=C(c2c(Cl)cccc2C(F)(F)F)S1(=O)=O [Compound 3.1]	20%	20%	–
O=S1(=O)C(c2c(Cl)cccc2C(F)(F)F)=C(O)c2nccnc2N1CC(F)F [Compound 3.3]	20%	35%	–
